This passage reports IC50 results from US20230031406A1, “COMPOUNDS AND COMPOSITIONS FOR TREATING CONDITIONS ASSOCIATED WITH NLRP ACTIVITY” (Novartis AG, priority 2018, published 2023).

For the assay, the system named is PMA-differentiated THP-1 cells. Kind of assay: IL-1β production in PMA-differentiated THP-1 cells stimulated with gramicidin (hTHP-1 assay containing 2% fetal bovine serum; Procedures 1 and 2). In kind it is cell-based, human. The method, boiled down: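 IL-1β release from PMA-differentiated THP-1 macrophage-like cells was triggered by 5 μM gramicidin for 2 h after 1 h compound exposure, then measured by HTRF.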

[1] abbreviates: Table B4, 2% fetal bovine serum, class symbols, read-out: hTHP-1 IC50.
The mark [2] stands for this setting: Homo sapiens, THP-1, Table B2, 2% fetal bovine serum, class symbols, read-out: hTHP-1 IC50.
The mark [3] stands for this setting: Homo sapiens, THP-1, Table B1, 2% fetal bovine serum, class symbols, read-out: Average IC50 of compounds in hTHP-1 assay: hTHP-1 IC50.
[4] abbreviates: Table B1, 2% fetal bovine serum, class symbols, read-out: Average IC50 of compounds in hTHP-1 assay: hTHP-1 IC50.
Where [5] appears, read: Table B2, 2% fetal bovine serum, class symbols, read-out: hTHP-1 IC50.
The mark [6] stands for this setting: Table B3, hTHP-1 assay, 2% fetal bovine serum, class symbols, read-out: IC50.

Like-named read-outs stand apart in the source and are kept apart here. A value given as a limit tells only on which side of the number the result lay.

Turning to `CC(C)(O)c1csc(S(N)(=O)=NC(=O)Nc2c3c(nc(C(F)(F)F)c2C2CC2)CCC3)c1` (centres unmarked) [Example 609, N′-((3-cyclopropyl-2-(trifluoromethyl)-6,7-dihydro-5H-cyclopenta[b]pyridin-4-yl)carbamoyl)-4-(2-hydroxypropan-2-yl)thiophene-2-sulfonimidamide], the IC50 (Homo sapiens, THP-1, Table B3, hTHP-1 assay, 2% fetal bovine serum, class symbols, read-out: IC50) lay within 0.2 to 1 µM.
As for `CCn1cc(F)c(S(N)(=O)=NC(=O)Nc2c3c(nc(C(F)(F)F)c2C2CC2)CCC3)n1` (single isomer, unassigned) [Example 773, (R) or (S)-N′-((3-cyclopropyl-2-(trifluoromethyl)-6,7-dihydro-5H-cyclopenta[b]pyridin-4-yl)carbamoyl)-1-ethyl-4-fluoro-1H-pyrazole-3-sulfonimidamide], the IC50 under setting [1] lay in the range of 0.04 to 0.2 µM.
As to `CC(C)(O)c1ccc(S(N)(=O)=NC(=O)Nc2c3c(nc4c2CCC4)CCC3)cc1` (single isomer, unassigned) [Compound 633a, (S) or (R)-N′-((1,2,3,5,6,7-hexahydrodicyclopenta [b,e]pyridin-8-yl)carbamoyl)-4-(2-hydroxypropan-2-yl)benzene-sulfonimidamide], the IC50 (Homo sapiens, THP-1, Table B2, 2% fetal bovine serum, numeric bounds, read-out: hTHP-1 IC50) was > 30 µM.
Turning to `CC(C)(O)c1cc(S(N)(=O)=NC(=O)Nc2c3c(nc4c2CCC4(C)C)CCC3)nn1-c1ccccc1` (single isomer, unassigned) [Compound 663b, (R) or (S)-N′-((3,3-dimethyl-1,2,3,5,6,7-hexahydrodicyclopenta [b,e]pyridin-8-yl)carbamoyl)-5-(2-hydroxypropan-2-yl)-1-phenyl-1H-pyrazole-3-sulfonimidamide], the IC50 under setting [2] was in the range of 1 to 5 µM.
In the case of `Cc1cc(C2CC2)nc(NC(=O)N=S(N)(=O)c2ncc(C(C)(C)O)s2)n1` (single isomer, unassigned) [Compound 185a, (R) or (S)-N′-((4-cyclopropyl-6-methylpyrimidin-2-yl)carbamoyl)-5-(2-hydroxypropan-2-yl)thiazole-2-sulfonimidamide], the IC50 is, setting by setting: under setting [3], 5 to 30 µM; under setting [2], 5 to 30 µM.
Turning to `CN(C)Cc1ccc(S(N)(=O)=NC(=O)Nc2c3c(nc4c2CCC4)CCC3)cc1` (single isomer, unassigned) [Compound 130a, (S) or (R)-4-((dimethylamino)methyl)-N′-((1,2,3,5,6,7-hexahydrodicyclo-penta[b,e]pyridin-8-yl)carbamoyl)benzene-sulfonamidamide], the IC50 (Homo sapiens, THP-1, Table B1, 2% fetal bovine serum, numeric bounds, read-out: Average IC50 of compounds in hTHP-1 assay: hTHP-1 IC50) is > 30 µM.
`CC(C)(O)c1nc(CO)c(S(N)(=O)=NC(=O)Nc2c3c(nc4c2CCC4(C)C)CCC3)s1` (single isomer, unassigned) [Compound 121b, (S) or (R)-N′-((3,3-dimethyl-1,2,3,5,6,7-hexahydro-dicyclopenta[b,e]pyridin-8-yl)carbamoyl)-4-(hydroxymethyl)-2-(2-hydroxypropan-2-yl)thiazole-5-sulfonimidamide]: the IC50 under setting [4] is 5 to 30 µM.
For the molecule `CC(C)c1nc2c(cc1NC(=O)N=[S@](N)(=O)c1cnc(C(C)(C)O)s1)CCC2` [Compound 601a], the IC50 under setting [2] lay in the range of 0.2 to 1 µM.
Regarding `CCc1cc(F)c(S(N)(=O)=NC(=O)Nc2c3c(nc4c2CC[C@H]4C)CCC3)s1` (single isomer, unassigned) [Compound 720b, (S) or (R)-5-Ethyl-3-fluoro-N′-(((R)-3-methyl-1,2,3,5,6,7-hexahydrodicyclopenta[b, e]pyridin-8-yl)carbamoyl)thiophene-2-sulfonimidamide], the half-maximal inhibitory concentration (IC50) under setting [5] was in the range of 5 to 30 µM.
On to `CCn1cc(F)c(S(N)(=O)=NC(=O)Nc2c(-c3ccccc3)cnc3c2CCC3)n1` (single isomer, unassigned) [Example 794, (S) or (R)-1-ethyl-4-fluoro-N′-((3-phenyl-6,7-dihydro-5H-cyclopenta[b]pyridin-4-yl)carbamoyl)-1H-pyrazole-3-sulfonimidamide], for which the IC50 under setting [1] was 5 to 30 µM.
Turning to `Cc1c(C(F)(F)F)nc2c(c1NC(=O)N=S(N)(=O)c1cnc(C(C)(C)O)s1)CCC2C` (single isomer, unassigned) [Example 703, (R/S, S) or (R/S, R)-N′-((3,7-dimethyl-2-(trifluoromethyl)-6,7-dihydro-5H-cyclopenta[b]pyridin-4-yl)carbamoyl)-2-(2-hydroxypropan-2-yl)thiazole-5-sulfonimidamide], under setting [6], the IC50 fell in the range of 1 to 5 µM.
As for `CC(C)n1ccc(S(N)(=O)=NC(=O)Nc2c3c(nc4c2CCC4(C)C)CCC3)n1` (single isomer, unassigned) [Compound 126b, (S) or (R)-N′-((3,3-dimethyl-1,2,3,5,6,7-hexahydro-dicyclopenta[b,e]pyridin-8-yl)carbamoyl)-1-isopropyl-1H-pyrazole-3-sulfonimidamide], the IC50 under setting [4] is 5 to 30 µM.
For the molecule `Cc1cc(S(N)(=O)=NC(=O)Nc2c3c(nc4c2CCC4)CCC3)sc1C(C)(C)O` (single isomer, unassigned) [Compound 692a, (S) or (R)-N′-((1,2,3,5,6,7-hexahydrodicyclopenta [b,e]pyridin-8-yl)carbamoyl)-5-(2-hydroxypropan-2-yl)-4-methylthiophene-2-sulfonimidamide], the IC50 under setting [5] lay in the range of 5 to 30 µM.
As for `CCc1c(C2CC2)nc2c(c1NC(=O)N=S(N)(=O)c1cnc(C(C)(C)O)s1)CCC2` (centres unmarked) [Compound 675, N′-((2-cyclopropyl-3-ethyl-6,7-dihydro-5H-cyclopenta[b]pyridin-4-yl)carbamoyl)-2-(2-hydroxypropan-2-yl)thiazole-5-sulfonimidamide], the IC50 under setting [2] was 1 to 5 µM.
Same read-out and setting: to `Cc1nc2c(c(NC(=O)N=S(N)(=O)c3cc(C(C)(C)O)cs3)c1C(C)C)CCC2` (centres unmarked) [Compound 622, 4-(2-Hydroxypropan-2-yl)-N′-((3-isopropyl-2-methyl-6,7-dihydro-5H-cyclopenta[b]pyridin-4-yl)carbamoyl)thiophene-2-sulfonimidamide] belongs 5 to 30 µM.
Take `CC(C)(O)c1cncc(S(N)(=O)=NC(=O)Nc2c3c(nc4c2CCC4(C)C)CCC3)c1` (single isomer, unassigned) [Compound 684a, (R) or (S)-N′-((3,3-dimethyl-1,2,3,5,6,7-hexahydrodicyclopenta [b,e]pyridin-8-yl)carbamoyl)-5-(2-hydroxypropan-2-yl)pyridine-3-sulfonimidamide]: under setting [5], the IC50 was 0.04 to 0.2 µM.
On to `CC(C)c1ncc(F)c(C(C)C)c1NC(=O)N=S(N)(=O)c1ccc(CN(C)C)cc1` (single isomer, unassigned) [Compound 132a, (R) or (S)-4-((dimethyl-amino)methyl)-N′-((5-fluoro-2,4-diisopropylpyridin-3-yl)carbamoyl)benzene-sulfonimidamide], for which the IC50 under setting [3] lay in the range of 5 to 30 µM.
Consider `NS(=O)(=NC(=O)Nc1c2c(nc(C(F)(F)F)c1C1CC1)CCC2)c1nn(C(F)F)cc1F` (single isomer, unassigned) [Example 775, (R) or (S)-N′-((3-cyclopropyl-2-(trifluoromethyl)-6,7-dihydro-5H-cyclopenta[b]pyridin-4-yl)carbamoyl)-1-(difluoromethyl)-4-fluoro-1H-pyrazole-3-sulfonimidamide], for which the IC50 under setting [1] was in the range of 0.04 to 0.2 µM.
For `C[C@@H]1CCc2c1nc1c(c2NC(=O)N=S(N)(=O)c2ccn(C(C)(F)F)n2)CCC1` (some centres unmarked) [Compound 723c], under setting [2], the IC50 lay within 0.2 to 1 µM.
In the case of `Cc1c(C(F)(F)F)nc2c(c1NC(=O)N=S(N)(=O)c1cnc(C(C)(O)CO)s1)CCC2` (single isomer, unassigned) [Compound 605g, (S, S) or (R, S)-2-(1,2-Dihydroxypropan-2-yl)-N′-((3-methyl-2-(trifluoromethyl)-6,7-dihydro-5H-cyclopenta[b]pyridin-4-yl)carbamoyl) thiazole-5-sulfonimidamide], the IC50 under setting [5] was in the range of 5 to 30 µM.
On to `CC(C)n1cc(F)c(S(N)(=O)=NC(=O)Nc2c3c(nc(C(F)(F)F)c2C2CC2)CCC3)n1` (centres unmarked) [Compound 1104, N′-((3-cyclopropyl-2-(trifluoromethyl)-6,7-dihydro-5H-cyclopenta[b]pyridin-4-yl)carbamoyl)-4-fluoro-1-isopropyl-1H-pyrazole-3-sulfonimidamide], for which the IC50 (Homo sapiens, THP-1, read-out: hTHP-1 IC50 in 2% FBS, hTHP-1 assay containing 2% fetal bovine serum, Table B5) lay in the range of 0.2 to 1 µM.
On to `CCn1cc(F)c(S(N)(=O)=NC(=O)Nc2c(C)c(C3CC3)nc3c2CCC3)n1` (single isomer, unassigned) [Example 714, (S) or (R)-N′-((2-cyclopropyl-3-methyl-6,7-dihydro-5H-cyclopenta[b]pyridin-4-yl)carbamoyl)-1-ethyl-4-fluoro-1H-pyrazole-3-sulfonimidamide], for which, under setting [6], the IC50 lay in the range of 1 to 5 µM.
Same read-out and setting: the value for `CCc1c(C(F)(F)F)nc2c(c1NC(=O)N=S(N)(=O)c1nn(C(F)F)cc1F)CCC2` (single isomer, unassigned) [Example 709, (R) or (S)-1-(difluoromethyl)-N′-((3-ethyl-2-(trifluoromethyl)-6,7-dihydro-5H-cyclopenta[b]pyridin-4-yl)carbamoyl)-4-fluoro-1H-pyrazole-3-sulfonimidamide] was 1 to 5 µM.
On to `CC1CCc2c1nc1c(c2NC(=O)N=S(N)(=O)c2cnc(C(C)(C)O)s2)CCC1` (centres unmarked) [Compound 162, 2-(2-hydroxypropan-2-yl)-N′-((3-methyl-1,2,3,5,6,7-hexahydrodicyclopenta[b,e]pyridin-8-yl)carbamoyl)thiazole-5-sulfonimidamide], for which the IC50 under setting [4] was 0.04 to 0.2 µM.
In the case of `CC(C)(O)c1sc(S(N)(=O)=NC(=O)Nc2c3c(nc4c2CCC4(C)C)CCC3)cc1F` (centres unmarked) [Compound 613, N′-((3,3-dimethyl-1,2,3,5,6,7-hexahydrodicyclopenta[b,e]pyridin-8-yl)carbamoyl)-4-fluoro-5-(2-hydroxypropan-2-yl)thiophene-2-sulfonimidamide], under setting [2], the 50% inhibitory concentration (IC50) fell in the range of 0.2 to 1 µM.
